In patent US8367710B2, “Bicyclo-substituted pyrazolon azo derivatives, preparation process and pharmaceutical use thereof” (Jiangsu Hengrui Medicine Co. Ltd., priority 2008, dated 2013):
One block for each molecule: values may come before it.

Experiments:
human TPO receptor = biological target: T1, human TPO receptor (Homo sapiens, UniProt P40238); assay: pro-proliferation effect on BAF3-TPOR cell (CCK-8); type: cell-based, mouse; details: BAF3-TPOR cells, proliferation relative to rhTPO positive control
T1 sequence (P40238 26-635): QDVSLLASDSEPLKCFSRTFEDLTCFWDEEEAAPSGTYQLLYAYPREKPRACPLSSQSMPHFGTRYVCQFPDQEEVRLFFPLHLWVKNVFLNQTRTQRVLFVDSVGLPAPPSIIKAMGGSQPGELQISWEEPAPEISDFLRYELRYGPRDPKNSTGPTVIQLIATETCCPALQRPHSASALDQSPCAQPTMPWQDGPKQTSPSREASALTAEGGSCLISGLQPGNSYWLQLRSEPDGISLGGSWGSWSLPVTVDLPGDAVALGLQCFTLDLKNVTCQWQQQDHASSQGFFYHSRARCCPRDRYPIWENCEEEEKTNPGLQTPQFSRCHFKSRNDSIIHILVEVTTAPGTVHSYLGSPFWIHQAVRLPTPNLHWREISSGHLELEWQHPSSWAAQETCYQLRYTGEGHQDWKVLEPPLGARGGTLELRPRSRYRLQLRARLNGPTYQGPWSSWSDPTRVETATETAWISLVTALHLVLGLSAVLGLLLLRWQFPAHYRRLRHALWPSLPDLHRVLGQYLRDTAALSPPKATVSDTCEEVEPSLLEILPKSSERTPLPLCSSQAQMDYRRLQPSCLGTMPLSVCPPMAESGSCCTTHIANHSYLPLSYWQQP
Experimental: The sequence of primers which contains multi-sites mutation was designed as follows: […]
The E. coli DH5α competent cell was transformed with mutated plasmid, and positive colonies were picked up through ampicillin selection.
(2) BAF3-TPOR stable transfected cell line: the following method was used to construct the BaF3 cell which stably over-expressed functional human TPO receptor. […] The stable transfected cells BAF3-TPOR were selected with G418 (Gibco, US), then incubated with RPMI1640 medium plus 10% FBS (Gibco, US), […] G418, 5 ng/mL, rmIL-3 (Chemicon, US).
(1) Washing cells by centrifugation: a suitable amount of cell suspension was centrifuged at 1000 rpm for 5 minutes, and the supernatant was discarded. 10 mL of cell culture media without containing IL-3 was added. Then the resulting cell suspension was centrifuged at 1000 rpm for 5 minutes, and the supernatant was discarded.
(2) 1 mL of cell culture media without containing IL-3 was added to beat upon them to equality, and the number of a suitable amount of cell suspension was counted after dilution.
(3) According to the result of the cell counting, a cell suspension in a concentration of 100,000 cell/mL was prepared.
(4) 100 μL of cell suspension was transferred to each well of 96-well culture plate, and there were 3 parallel wells, that is, there were a blank control group (B), a negative control group (N), a positive control group of TPO (P) and a test compound group (S).
(5) The test compound was dissolved in DMSO to prepare a 10 mM stock solution, and then the solution was diluted with RPMI 1640 medium into a series of test samples at different concentration: 30 μM, 10 μM, 3 μM, 1 μM, 0.3 μM, 0.1 μM, 0.03 μM, 0.01 μM, 0.003 μM, 0.001 μM.
(6) 10 μL of test compound solution was transferred to each well respectively; 1 μL of rhTPO (10 μg/mL) was added to positive control well.
(7) The plates were incubated in an incubator at 5% CO2 and 37° C. for 24 hours.
(9) OD value was detected at 450 nm by VICTOR3 (Perkin Elmer 1420-120) plate reader.
(1) The proliferation rate was calculated as follows: Rate=[(S−B)/(P−B)]*100%
S: OD value of wells which contains test compound.
B: OD value of blank control wells
P: OD value of positive control wells
(2) The EC50 value was calculated by Origin 7.0 software.

[1] = Pharmacokinetics assay in rats after intragastric administration; type: in vivo; details: both sexes, Sprague-Dawley, rat, plasma, po, SD rats, 5 mg/Kg; for Vd/F: read-out: Apparent Distribution Volume Vz/F; for CL/F: read-out: Clearance CL/F (converted); for AUC: read-out: Curve Area AUC; for half-life: read-out: Half-Life t½ (converted); for MRT: read-out: Mean Residence Time MRT; for Cmax: read-out: Plasma Conc. Cmax
Experimental: Test Example 1: Pharmacokinetics assay of the compounds of the present disclosure
The pharmacokinetics of the compounds of the present disclosure was studied and evaluated in rats.
The test compound was diluted with 1% sodium carboxymethyl cellulose to 0.5 mg/mL (calculated as the free acid form) of suspension before use.
24 healthy adult SD rats, male and female in half, were divided into […]. After an overnight fast, the rats were administered intragastrically at a dose of 5.0 mg/kg (calculated as the free acid form), at a volume of 10 mL/kg.
24 healthy adult SD rats, male and female in half, were administered intragastrically at a dose of 5.0 mg/kg after an overnight fast. Blood samples (0.2 mL) were taken from eye socket at pre administration and at 0.5, 1.0, 2.0, 3.0, 4.0, 5.0, 6.0, 8.0, 11.0, 14.0, 24.0, 36.0 and 48.0 hours post administration, which were stored in heparinized tubes and centrifuged for 10 minutes at 3,500 rpm. The plasma samples were stored at −20° C. until analysis.
50 μL of rat plasma, obtained at various time points after administration, 20 μL of internal standard solution and 20 μL of a solvent mixture of methanol and water (80:20, v/v) were mixed well, and then 150 μL of methanol was added to result in protein precipitation. Then the mixture was mixed for 1 minute using a vortexer and centrifuged for 10 minutes at 13,000 rpm. 20 μL of the supernatant was analyzed by LC/MS/MS.
50 μL of blank plasma was spiked with a series of standard solutions to produce final concentrations of 1.0, 5.0, 25.0, 50.0, 100.0, 250.0, 500.0 ng/mL, followed by addition of 20 μL of internal standard solution, which was treated according to plasma sample pretreatment protocol. A typical calibration curve equation was obtained with plasma concentration as the abscissa and the chromatographic peak area ratio of sample to internal standard as the ordinate, using weighted least squares method (w=1/x^2) for linear regression.
The compartmental model of pharmacokinetics was fitted for the test compounds and the major pharmacokinetic parameters were calculated in which Cmax and tmax were the actually measured values.

Structure (SMILES): CC1=NN(c2ccc(C)c(C)c2)C(=O)/C1=N\Nc1cccc(-c2cccc(C(=O)O)c2)c1O [Eltrombopag, eltrombopag, reference compound]
- EC50 (human TPO receptor): 299 nM
- Vd/F [1]: 1.53 ± 0.26 L/kg
- CL/F [1]: 3 mL/min/kg
- AUC [1]: 29000 ± 3820 ng·h/mL
- half-life [1]: 6.11 ± 1.04 h
- MRT [1]: 4.63 ± 1.03 h
- Cmax [1]: 8470 ± 950 ng/mL

Structure (SMILES): CC1=NN(c2ccc3c(c2)CCC3)C(=O)/C1=N\Nc1cc(C)cc(-c2cccc(C(=O)O)c2)c1O [Example 29, 2′-Hydroxy-3′-[N′-(1-indan-5-yl-3-methyl-5-oxo-1,5-dihydro-pyrazol-4-ylidene)-hydrazino]-5′-methyl-biphenyl-3-carboxylic acid]
- EC50 (human TPO receptor): 124 nM
- Vd/F [1]: 0.77 ± 0.39 L/kg
- CL/F [1]: 2.33 mL/min/kg
- AUC [1]: 44800 ± 19400 ng·h/mL
- half-life [1]: 4.01 ± 0.63 h
- MRT [1]: 4.29 ± 0.8 h
- Cmax [1]: 13000 ± 5960 ng/mL

Structure (SMILES): CC1=NN(c2ccc3c(c2)CC(C)(C)C3)C(=O)/C1=N\Nc1cccc(-c2ccc(C(=O)O)o2)c1O [Example 45, 5-(3-{N′-[1-(2,2-Dimethyl-indan-5-yl)-3-methyl-5-oxo-1,5-dihydro-pyrazol-4-ylidene]-hydrazino}-2-hydroxy-phenyl)-furan-2-carboxylic acid]
- EC50 (human TPO receptor): 130 nM

Structure (SMILES): CC1=NN(c2ccc3c(c2)CCCC3)C(=O)/C1=N\Nc1cc(F)cc(-c2cccc(C(=O)O)c2)c1O [Example 4, 5′-Fluoro-2′-hydroxy-3′-{N′-[3-methyl-5-oxo-1-(5,6,7,8-tetrahydro-naphthalen-2-yl)-1,5-dihydro-pyrazol-4-ylidene]-hydrazino}-biphenyl-3-carboxylic acid]
- EC50 (human TPO receptor): 283 nM

Structure (SMILES): CC1=NN(c2ccc3c(c2)CCCC3)C(=O)/C1=N\Nc1cccc(-c2cccc(C(=O)O)c2)c1O [Example 3, 2′-Hydroxy-3′-{N′-[3-methyl-5-oxo-1-(5,6,7,8-tetrahydro-naphthalen-2-yl)-1,5-dihydro-pyrazol-4-ylidene]-hydrazino}-biphenyl-3-carboxylic acid]
- EC50 (human TPO receptor): 310 nM

Structure (SMILES): CC1=NN(c2ccc3c(c2)CCO3)C(=O)/C1=N\Nc1cc(C)cc(-c2cccc(C(=O)O)c2)c1O [Example 13, 3′-{N′-[1-(2,3-Dihydro-benzofuran-5-yl)-3-methyl-5-oxo-1,5-dihydro-pyrazol-4-ylidene]-hydrazino}-2′-hydroxy-5′-methyl-biphenyl-3-carboxylic acid]
- EC50 (human TPO receptor): 141 nM

Now those with a lower EC50 (human TPO receptor), led by results:

- EC50 (human TPO receptor): 60 nM
Structure (SMILES): CC1=NN(c2ccc3c(c2)CC(C)(C)C3)C(=O)/C1=N\Nc1cccc(-c2cccc(C(=O)O)c2)c1O [Example 56, 3′-{N′-[1-(2,2-Dimethyl-indan-5-yl)-3-methyl-5-oxo-1,5-dihydro-pyrazol-4-ylidene]-hydrazino}-2′-hydroxy-biphenyl-3-carboxylic acid]

- EC50 (human TPO receptor): 60 nM
Structure (SMILES): CC1=NN(c2ccc3c(c2)C(C)(C)CC3(C)C)C(=O)/C1=N\Nc1cccc(-c2ccc(C(=O)O)o2)c1O [Example 25, 5-(2-Hydroxy-3-{N′-[3-methyl-5-oxo-1-(1,1,3,3-tetramethyl-indan-5-yl)-1,5-dihydro-pyrazol-4-ylidene]-hydrazino}-phenyl)-furan-2-carboxylic acid]

- EC50 (human TPO receptor): 15 nM
Structure (SMILES): CC1=NN(c2ccc3c(c2)CC3)C(=O)/C1=N\Nc1cccc(-c2ccc(C(=O)O)o2)c1O [Example 22, 5-{3-[N′-(1-Bicyclo[4.2.0]octa-1(6),2,4-trien-3-yl-3-methyl-5-oxo-1,5-dihydro-pyrazol-4-ylidene)-hydrazino]-2-hydroxy-phenyl}-furan-2-carboxylic acid]
